{"source": "patent US20220378691A1", "about": "“Cosmetic composition comprising fermented product of Nuruk” (DAEBONG LS, LTD, priority 2021, published 2022)", "assay": "Antioxidant effect: DPPH free radical scavenging test", "conditions": "treatment concentration 0.0005%; positive control", "protocol": "The following assay test method was performed by applying the decrease in absorbance at 517 nm wavelength. […] After leaving the prepared sample at room temperature for 15 minutes, absorbance was measured at a wavelength of a 517 nm using a microplate reader. […] In addition, the positive control of this experimental example was prepared by mixing 1 ml of ascorbic acid (10 ppm) solution diluted in methanol and 1 ml of DPPH.", "data": [{"smiles": "O=C1O[C@H]([C@@H](O)CO)C(O)=C1O", "note": "[Ascorbic acid, ascorbic acid]", "values": [{"measurement": "DPPF radical scavenging activity", "result": "91.36 ± 0.13", "unit": "%"}]}]}
